Tests used:
[1] = molecular target: cGMP-inhibited 3',5'-cyclic phosphodiesterase 3A (Homo sapiens) (UniProt Q14432); test: Inhibition of PDE3A (unknown origin) at 10 uM relative to control
[2] = molecular target: DNA-PK/Ku70/Ku85 (Homo sapiens) (UniProt P78527+P12956+P13010); test: Inhibition of human DNA-PK/Ku70/Ku85 at 10 uM using EPPLSQEAFADLWKK as substrate by HTRF assay relative to control
DNA-PK/Ku70/Ku85 = DNA-PK/Ku70/Ku85 (Homo sapiens, UniProt P12956+P13010+P78527); test: Inhibition of human DNA-PK/Ku70/Ku85 using EPPLSQEAFADLWKK as substrate by HTRF assay relative to control
[3] = molecular target: T1, Phosphatidylinositol 4,5-bisphosphate 3-kinase catalytic subunit gamma isoform (Homo sapiens, UniProt P48736); test: Inhibition of p110gamma (unknown origin) assessed as decrease in ATP consumption after 60 mins by Kinase-Glo assay
Target sequence in this assay (P48736 whole entry, canonical isoform): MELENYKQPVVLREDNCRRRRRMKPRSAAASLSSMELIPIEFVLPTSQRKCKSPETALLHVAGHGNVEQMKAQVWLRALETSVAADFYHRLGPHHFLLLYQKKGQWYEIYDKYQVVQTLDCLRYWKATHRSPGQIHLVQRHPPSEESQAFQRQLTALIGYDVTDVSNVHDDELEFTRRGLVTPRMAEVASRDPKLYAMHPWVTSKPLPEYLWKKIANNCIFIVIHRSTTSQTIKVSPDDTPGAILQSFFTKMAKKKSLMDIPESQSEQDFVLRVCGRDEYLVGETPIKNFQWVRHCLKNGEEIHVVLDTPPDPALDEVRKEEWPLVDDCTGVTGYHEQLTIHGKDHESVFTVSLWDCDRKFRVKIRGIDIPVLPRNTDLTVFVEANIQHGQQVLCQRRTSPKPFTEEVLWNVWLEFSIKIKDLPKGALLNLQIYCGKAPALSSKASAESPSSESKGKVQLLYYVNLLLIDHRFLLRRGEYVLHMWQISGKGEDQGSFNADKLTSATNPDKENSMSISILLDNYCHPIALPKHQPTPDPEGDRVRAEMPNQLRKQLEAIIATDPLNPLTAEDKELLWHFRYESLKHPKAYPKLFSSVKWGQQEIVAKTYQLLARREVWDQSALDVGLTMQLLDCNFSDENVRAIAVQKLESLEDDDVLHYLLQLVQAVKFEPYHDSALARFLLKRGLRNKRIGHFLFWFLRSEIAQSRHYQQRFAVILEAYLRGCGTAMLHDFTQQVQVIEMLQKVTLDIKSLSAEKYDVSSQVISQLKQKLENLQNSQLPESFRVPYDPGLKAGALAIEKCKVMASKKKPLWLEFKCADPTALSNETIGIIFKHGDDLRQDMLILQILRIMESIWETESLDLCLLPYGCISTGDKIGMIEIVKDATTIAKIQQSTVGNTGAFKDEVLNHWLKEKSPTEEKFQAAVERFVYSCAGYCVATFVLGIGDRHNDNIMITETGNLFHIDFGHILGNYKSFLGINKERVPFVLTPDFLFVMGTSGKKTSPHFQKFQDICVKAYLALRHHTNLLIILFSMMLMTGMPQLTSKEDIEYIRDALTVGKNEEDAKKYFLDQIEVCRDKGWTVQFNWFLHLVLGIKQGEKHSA

[4] = molecular target: T2, Phosphatidylinositol 4,5-bisphosphate 3-kinase catalytic subunit delta isoform (Homo sapiens, UniProt O00329); test: Inhibition of p110delta (unknown origin) assessed as decrease in ATP consumption after 60 mins by Kinase-Glo assay
T2 sequence (O00329 whole entry): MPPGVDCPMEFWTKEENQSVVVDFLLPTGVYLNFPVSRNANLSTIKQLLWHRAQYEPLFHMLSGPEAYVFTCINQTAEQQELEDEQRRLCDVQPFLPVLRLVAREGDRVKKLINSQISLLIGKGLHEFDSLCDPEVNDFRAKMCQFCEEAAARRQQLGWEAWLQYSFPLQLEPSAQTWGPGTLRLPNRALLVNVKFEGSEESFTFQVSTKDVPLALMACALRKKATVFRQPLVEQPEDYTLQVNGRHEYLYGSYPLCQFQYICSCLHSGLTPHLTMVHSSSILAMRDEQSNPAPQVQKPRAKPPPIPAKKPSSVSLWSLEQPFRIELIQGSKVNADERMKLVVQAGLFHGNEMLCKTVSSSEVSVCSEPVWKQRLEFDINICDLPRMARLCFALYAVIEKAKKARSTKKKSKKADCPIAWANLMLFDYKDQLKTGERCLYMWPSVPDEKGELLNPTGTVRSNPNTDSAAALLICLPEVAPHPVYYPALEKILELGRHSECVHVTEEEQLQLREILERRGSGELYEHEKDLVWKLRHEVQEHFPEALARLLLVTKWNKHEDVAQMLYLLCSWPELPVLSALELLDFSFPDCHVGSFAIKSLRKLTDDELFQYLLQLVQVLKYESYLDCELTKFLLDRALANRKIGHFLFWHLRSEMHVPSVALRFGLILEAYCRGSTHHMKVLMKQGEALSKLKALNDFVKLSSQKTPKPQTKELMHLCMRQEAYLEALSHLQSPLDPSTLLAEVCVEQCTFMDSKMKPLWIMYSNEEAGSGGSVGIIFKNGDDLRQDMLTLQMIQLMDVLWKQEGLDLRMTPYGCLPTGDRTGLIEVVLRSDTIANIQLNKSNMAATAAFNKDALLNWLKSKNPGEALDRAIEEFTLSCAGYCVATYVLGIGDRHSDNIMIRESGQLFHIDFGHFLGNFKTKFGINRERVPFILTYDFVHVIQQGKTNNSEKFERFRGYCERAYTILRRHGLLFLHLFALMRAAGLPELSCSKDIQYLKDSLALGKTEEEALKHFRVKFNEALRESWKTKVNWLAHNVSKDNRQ

[5] = Antiplatelet activity in human platelet rich plasma assessed as inhibition of collagen-induced platelet aggregation preincubated for 2 mins followed by collagen addition by two-channel platelet aggregometer; assay type: functional
[6] = molecular target: T3, Phosphatidylinositol 4,5-bisphosphate 3-kinase catalytic subunit beta isoform (Homo sapiens, UniProt P42338); test: Inhibition of p110beta (unknown origin) assessed as decrease in ATP consumption after 60 mins by Kinase-Glo assay
Target sequence in this assay (P42338 whole entry, canonical isoform): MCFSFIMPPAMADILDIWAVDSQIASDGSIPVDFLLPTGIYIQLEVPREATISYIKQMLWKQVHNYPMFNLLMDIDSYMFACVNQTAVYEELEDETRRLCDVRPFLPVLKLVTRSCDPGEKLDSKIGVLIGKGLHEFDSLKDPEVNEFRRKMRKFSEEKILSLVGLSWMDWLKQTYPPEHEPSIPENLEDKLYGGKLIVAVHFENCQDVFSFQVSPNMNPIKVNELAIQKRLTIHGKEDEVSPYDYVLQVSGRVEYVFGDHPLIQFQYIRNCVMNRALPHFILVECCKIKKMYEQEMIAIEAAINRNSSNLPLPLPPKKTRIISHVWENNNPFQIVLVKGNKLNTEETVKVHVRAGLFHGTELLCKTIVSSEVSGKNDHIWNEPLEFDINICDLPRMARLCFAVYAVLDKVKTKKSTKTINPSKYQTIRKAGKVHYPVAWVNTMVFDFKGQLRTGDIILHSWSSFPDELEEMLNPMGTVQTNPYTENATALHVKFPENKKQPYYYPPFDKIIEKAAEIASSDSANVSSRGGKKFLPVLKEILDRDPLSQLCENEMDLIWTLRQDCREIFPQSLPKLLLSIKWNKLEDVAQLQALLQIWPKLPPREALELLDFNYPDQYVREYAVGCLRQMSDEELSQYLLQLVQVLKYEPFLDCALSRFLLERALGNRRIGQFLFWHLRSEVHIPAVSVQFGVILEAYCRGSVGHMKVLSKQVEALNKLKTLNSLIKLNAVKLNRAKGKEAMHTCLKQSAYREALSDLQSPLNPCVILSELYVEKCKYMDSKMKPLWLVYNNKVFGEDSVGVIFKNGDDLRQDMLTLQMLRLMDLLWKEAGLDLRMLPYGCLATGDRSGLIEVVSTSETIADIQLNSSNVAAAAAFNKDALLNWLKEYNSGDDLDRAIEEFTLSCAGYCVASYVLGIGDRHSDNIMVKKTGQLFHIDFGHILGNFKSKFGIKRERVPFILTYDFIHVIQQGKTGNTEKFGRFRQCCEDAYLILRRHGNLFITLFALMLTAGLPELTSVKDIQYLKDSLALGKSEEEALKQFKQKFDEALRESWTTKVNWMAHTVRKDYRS

[7] = molecular target: T4, Phosphatidylinositol 4,5-bisphosphate 3-kinase catalytic subunit alpha isoform (Homo sapiens, UniProt P42336); test: Inhibition of p110alpha (unknown origin) assessed as decrease in ATP consumption after 60 mins by Kinase-Glo assay
T4 sequence (P42336 whole entry, canonical isoform): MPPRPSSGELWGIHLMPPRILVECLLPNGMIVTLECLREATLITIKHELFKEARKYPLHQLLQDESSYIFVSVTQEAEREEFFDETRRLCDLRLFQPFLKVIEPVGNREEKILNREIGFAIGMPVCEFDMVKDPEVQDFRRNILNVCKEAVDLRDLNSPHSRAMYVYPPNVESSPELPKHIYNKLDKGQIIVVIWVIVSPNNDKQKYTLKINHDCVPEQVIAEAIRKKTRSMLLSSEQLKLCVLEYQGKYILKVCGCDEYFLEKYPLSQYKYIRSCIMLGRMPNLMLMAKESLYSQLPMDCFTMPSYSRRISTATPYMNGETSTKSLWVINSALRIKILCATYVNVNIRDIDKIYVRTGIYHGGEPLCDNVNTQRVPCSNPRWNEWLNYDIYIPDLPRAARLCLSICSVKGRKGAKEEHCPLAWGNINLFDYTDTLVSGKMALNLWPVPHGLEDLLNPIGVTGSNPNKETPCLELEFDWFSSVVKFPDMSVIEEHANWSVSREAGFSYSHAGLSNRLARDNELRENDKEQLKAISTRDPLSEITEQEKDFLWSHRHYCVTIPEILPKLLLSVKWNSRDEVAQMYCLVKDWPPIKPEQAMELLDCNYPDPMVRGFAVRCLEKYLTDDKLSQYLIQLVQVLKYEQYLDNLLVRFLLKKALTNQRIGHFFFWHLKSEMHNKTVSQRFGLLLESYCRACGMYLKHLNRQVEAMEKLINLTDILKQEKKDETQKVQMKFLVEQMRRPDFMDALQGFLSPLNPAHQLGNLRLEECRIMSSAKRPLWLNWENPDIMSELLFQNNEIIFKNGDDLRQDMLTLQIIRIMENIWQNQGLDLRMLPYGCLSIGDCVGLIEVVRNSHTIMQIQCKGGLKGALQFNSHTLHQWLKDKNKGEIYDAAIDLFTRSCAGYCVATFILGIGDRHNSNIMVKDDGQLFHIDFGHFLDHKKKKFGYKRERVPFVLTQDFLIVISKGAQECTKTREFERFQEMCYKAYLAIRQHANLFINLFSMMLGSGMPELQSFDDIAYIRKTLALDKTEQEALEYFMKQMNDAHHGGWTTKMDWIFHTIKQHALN

[8] = molecular target: T3, Phosphatidylinositol 4,5-bisphosphate 3-kinase catalytic subunit beta isoform; test: Inhibition of p110beta (unknown origin) assessed as decrease in ATP consumption at 10 uM after 60 mins by Kinase-Glo assay relative to control
Target sequence in this assay (P42338 whole entry, looked up, canonical isoform): as the sequence (P42338 whole entry, canonical isoform) above

[9] = molecular target: T4, Phosphatidylinositol 4,5-bisphosphate 3-kinase catalytic subunit alpha isoform; test: Inhibition of p110alpha (unknown origin) assessed as decrease in ATP consumption at 10 uM after 60 mins by Kinase-Glo assay relative to control
[10] = molecular target: T1, Phosphatidylinositol 4,5-bisphosphate 3-kinase catalytic subunit gamma isoform; test: Inhibition of p110gamma (unknown origin) assessed as decrease in ATP consumption at 10 uM after 60 mins by Kinase-Glo assay relative to control
Target sequence in this assay (P48736 whole entry, looked up, canonical isoform): as the sequence (P48736 whole entry, canonical isoform) above

[11] = molecular target: T5, Phosphatidylinositol 4,5-bisphosphate 3-kinase catalytic subunit delta isoform (Homo sapiens) (UniProt O00329); test: Inhibition of p110delta (unknown origin) assessed as decrease in ATP consumption at 10 uM after 60 mins by Kinase-Glo assay relative to control
T5 sequence (whole entry): T2 sequence (O00329 whole entry)

Chain of cGMP-inhibited 3',5'-cyclic phosphodiesterase 3A (Homo sapiens) (Q14432 whole entry): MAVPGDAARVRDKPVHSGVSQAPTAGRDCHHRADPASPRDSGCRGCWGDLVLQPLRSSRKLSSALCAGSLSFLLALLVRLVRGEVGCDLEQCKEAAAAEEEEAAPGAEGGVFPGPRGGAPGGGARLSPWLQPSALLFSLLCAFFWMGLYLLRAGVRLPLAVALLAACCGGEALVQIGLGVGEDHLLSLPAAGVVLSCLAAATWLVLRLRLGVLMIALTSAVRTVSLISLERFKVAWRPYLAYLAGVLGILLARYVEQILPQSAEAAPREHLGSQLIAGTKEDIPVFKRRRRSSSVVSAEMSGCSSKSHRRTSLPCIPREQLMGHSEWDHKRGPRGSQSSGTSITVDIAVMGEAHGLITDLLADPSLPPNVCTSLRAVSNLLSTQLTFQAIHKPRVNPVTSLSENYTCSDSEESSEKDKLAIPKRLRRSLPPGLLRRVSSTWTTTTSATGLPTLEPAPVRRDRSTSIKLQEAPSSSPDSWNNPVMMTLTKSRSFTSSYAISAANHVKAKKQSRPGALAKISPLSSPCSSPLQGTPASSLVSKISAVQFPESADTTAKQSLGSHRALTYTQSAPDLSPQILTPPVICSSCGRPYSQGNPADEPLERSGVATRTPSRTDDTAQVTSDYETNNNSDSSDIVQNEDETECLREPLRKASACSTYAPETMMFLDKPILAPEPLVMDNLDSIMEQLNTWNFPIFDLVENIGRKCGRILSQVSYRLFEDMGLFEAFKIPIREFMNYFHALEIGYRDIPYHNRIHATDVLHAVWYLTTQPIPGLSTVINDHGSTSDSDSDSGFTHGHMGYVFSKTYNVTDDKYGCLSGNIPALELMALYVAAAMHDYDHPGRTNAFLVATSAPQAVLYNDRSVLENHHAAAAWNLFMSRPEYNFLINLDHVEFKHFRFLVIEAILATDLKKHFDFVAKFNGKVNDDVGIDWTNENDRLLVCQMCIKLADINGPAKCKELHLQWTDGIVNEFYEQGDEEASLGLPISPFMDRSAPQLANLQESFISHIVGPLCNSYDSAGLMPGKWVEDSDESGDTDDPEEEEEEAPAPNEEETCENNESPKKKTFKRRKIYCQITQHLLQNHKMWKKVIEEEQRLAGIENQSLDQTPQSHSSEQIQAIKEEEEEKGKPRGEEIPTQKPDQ

SMILES	inhibition [1]	inhibition [2]	IC50 (DNA-PK/Ku70/Ku85)	IC50 [3]	IC50 [4]	IC50 [5]	IC50 [6]	IC50 [7]	inhibition [8]	inhibition [9]	inhibition [10]	inhibition [11]
NC(=O)c1ccc(-c2cc3c(=O)nc(N4CCOCC4)oc3c3ccccc23)cc1	7%	10%										
COc1ccc(-c2c3ccccc3cc3c(=O)nc(N4CCOCC4)oc23)cc1	6%		11.9 µM	> 50 µM	5.6 µM	> 80 µM	> 50 µM	> 50 µM				
O=c1nc(N2CCOCC2)oc2c1cc(-c1ccsc1)c1ccccc12	22%	22%										
O=c1nc(N2CCOCC2)oc2c(-c3ccc(Cl)cc3)c3ccccc3cc12	24%		> 100 µM			> 80 µM			0%	8%	3%	52%
O=c1nc(N2CCOCC2)oc2c1cc(-c1cccc3c1sc1ccccc13)c1ccccc12	30%	0%				5 µM			11%	23%	12%	0%
O=c1nc(N2CCOCC2)oc2c1cc(-c1ccc(CO)cc1)c1ccccc12	35%											
O=c1nc(N2CCOCC2)oc2c1cc(-c1ccc(Cl)cc1)c1ccccc12	1%	11%										
O=c1nc(N2CCOCC2)oc2cc3ccccc3cc12												-10%
O=c1nc(N2CCOCC2)oc2c1cc(-c1cccs1)c1ccccc12	32%	34%										
O=c1nc(N2CCOCC2)oc2ccc3cc(-c4cccc5c4sc4ccccc45)ccc3c12	5%	0%										
O=c1nc(N2CCOCC2)oc2c(-c3ccccc3)c3ccccc3cc12	32%		78.1 µM	> 50 µM	7.7 µM	> 80 µM	> 50 µM	43.8 µM				
O=c1nc(N2CCOCC2)oc2ccc3cc(-c4ccccc4)ccc3c12	13%	0%							-3%	-2%	1%	-1%
COc1ccc(-c2cc3c(=O)nc(N4CCOCC4)oc3c3ccccc23)cc1	26%	19%				14 µM			42%	20%	17%	9%
O=c1nc(N2CCOCC2)oc2c1cc(-c1ccccc1)c1ccccc12	15%	22%				3 µM			10%	35%	34%	3%
Nc1cccc(-c2cc3c(=O)nc(N4CCOCC4)oc3c3ccccc23)c1	-3%											
O=c1nc(N2CCOCC2)oc2ccc3cc(-c4cccc5c4oc4ccccc45)ccc3c12	12%	0%										
O=c1nc(N2CCOCC2)oc2c1ccc1ccccc12			10 µM			> 80 µM			15%	22%	4%	12%
O=c1nc(N2CCOCC2)oc2ccc3cc(-c4ccc(Cl)cc4)ccc3c12	-4%	8.1%							-1%	-5%	0%	-1%
O=c1nc(N2CCOCC2)oc2c1cc(-c1cccc3c1oc1ccccc13)c1ccccc12	11%	24%				2 µM			22%	9%	24%	0%
O=c1nc(N2CCOCC2)oc2ccc3ccccc3c12			38.8 µM			> 80 µM			23%	4%	2%	8%
COc1ccc(-c2ccc3c(ccc4oc(N5CCOCC5)nc(=O)c43)c2)cc1	18%								0%	0%	-2%	0%
O=c1nc(N2CCOCC2)oc2c1cc(-c1cccc3ccccc13)c1ccccc12	26%	10%										
O=c1nc(N2CCOCC2)oc2c1cc(/C=C/c1ccccc1)c1ccccc12	18%	5.9%										

— ChEMBL document CHEMBL3864148, “Synthesis of linear and angular aryl-morpholino-naphth-oxazines, their DNA-PK, PI3K, PDE3A and antiplatelet activity” (Bioorg Med Chem Lett, 2016)
